These results are taken from US12466821B2 (Novartis AG, priority 2018, dated 2025).

In general, IC50 refers to the concentration that gives 50% inhibition. The term EC50 denotes the midpoint of the concentration-response curve.

In experiment [1] the target is human HSV DNA polymerase UL30 (Human herpesvirus 1 (strain 17) (HHV-1) (Human herpes simplex virus 1), UniProt P04293). Kind of experiment: HSV polymerase biochemical assay (molecular beacon-based). An outline of the steps: (§1)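 Full-length wild-type N-terminal MBP-fusion polymerases from sf9 cells were used at 100 pM (CMV) or 625 pM (HSV) in Tris pH 7.5, 10 mM MgCl2, and preincubated with inhibitor for 30 min at RT. Reactions with 1.25 uM each dNTP, 200 nM primer and 100 nM molecular beacon ran 60 min (CMV) or 20 min (HSV) at RT. Fluorescence was read at 480/535 nm and IC50 derived.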

Experiment [2] concerns Luciferase-encoding HCMV, AD169 strain. Kind of experiment: CMV Luciferase assay (cellular herpesvirus replication). Format: cell-based. The settings on record: Human betaherpesvirus 5, AD169, read-out: CMV-Luc Cellular EC50. An outline of the steps: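 Reporter HCMV AD169 with luciferase driven by late pp28 promoter, so signal requires viral DNA replication; NN-NHDF fibroblasts in 2% FBS medium, compound (0.0159–50 or 0.00318–10 μM, 0.5% DMSO) added 1 h before infection at MOI 1. Luminescence read 72 hpi; EC50 from 4-parameter fit of control-normalized %.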

Experiment [3] addresses human CMV DNA polymerase UL54 (Human cytomegalovirus (strain AD169) (HHV-5) (Human herpesvirus 5), UniProt P08546). In words: CMV polymerase biochemical assay (molecular beacon-based). The method, boiled down:
as §1

As for `COC1(S(=O)(=O)C2(CN3CCn4c(ccc(C(=O)NCc5ccc(C#N)c(F)c5)c4=O)C3=O)CC2)CC1` [Example 190], the IC50 in experiment [1] came out at 66.5 nM; in experiment [3], 1.4 nM. The EC50 in experiment [2] was 47.8 nM.

In the case of `CC(CN1CCn2c(ccc(C(=O)NCc3ccc(Cl)cc3)c2=O)C1=O)S(=O)(=O)C1CC1` (stereo not drawn) [Example 191], the values for the IC50 in experiment [1] and in experiment [3] were 5460 nM and 76.5 nM, respectively. Further, in experiment [2], the EC50 turned out to be 3460 nM.

Regarding `CC(CN1CCn2c(ccc(C(=O)NCc3ccc(C#N)cc3)c2=O)C1=O)S(=O)(=O)C1CC1` (stereo not drawn) [Example 192], the figures for the IC50 in experiment [1] and in experiment [3] were 3010 nM and 194 nM, respectively. The 50% effective concentration (EC50) in experiment [2] was found to be 8050 nM.

With `O=C(NCc1ccc(Cl)cc1)c1ccc2n(c1=O)CCN(CCS(=O)(=O)C1CC1)C2=O` [Example 193], the half-inhibitory concentration (IC50) was found to be 420 nM in experiment [1] and 34.1 nM in experiment [3]. The EC50 in experiment [2] worked out at 1240 nM.

Turning to `N#Cc1ccc(CNC(=O)c2ccc3n(c2=O)CCN(CCS(=O)(=O)C2CC2)C3=O)cc1` [Example 194], the IC50 in experiment [1] was determined as 855 nM; in experiment [3] it was 103 nM. In experiment [2], the EC50 came to 4220 nM.

For `N#Cc1ccc(CNC(=O)c2ccc3n(c2=O)CCN(CCS(=O)(=O)C2CC2)C3=O)cc1F` [Example 195], the IC50 was found to be 649 nM in experiment [1] and 67.1 nM in experiment [3]. For the same compound, in experiment [2], the EC50 was found to be 2610 nM.

On to `N#Cc1ccc(CNC(=O)c2ccc3n(c2=O)CCN(CC2(S(=O)(=O)C4(O)CC4)CC2)C3=O)cc1` [Example 196, N-(4-cyanobenzyl)-2-((1-((1-hydroxycyclopropyl)sulfonyl)cyclopropyl)methyl)-1,6-dioxo-1,3,4,6-tetrahydro-2H-pyrido[1,2-a]pyrazine-7-carboxamide], for which the IC50 amounted to 205 nM in experiment [1] and 7.7 nM in experiment [3]. Moreover, in experiment [2], the EC50 was found to be 509 nM.

As for `CS(=O)(=O)NC1(CN2CCn3c(ccc(C(=O)NCc4ccc(Cl)cc4)c3=O)C2=O)CC1` [Example 198], the IC50 in experiment [1] was 1500 nM; in experiment [3], 37.2 nM. In addition, the EC50 in experiment [2] amounted to 1680 nM.

For `CCS(=O)(=O)NC1(CN2CCn3c(ccc(C(=O)NCc4ccc(Cl)cc4)c3=O)C2=O)CC1` [Example 199], the results for the IC50 in experiment [1] and in experiment [3] were 1110 nM and 53.7 nM, respectively. Besides, the EC50 in experiment [2] was 1720 nM.

For the compound `O=C(NCc1ccc(Cl)cc1)c1ccc2n(c1=O)CCN(CC1(NS(=O)(=O)C3CC3)CC1)C2=O` [Example 200], the IC50 was 2560 nM in experiment [1] and 232 nM in experiment [3]. The EC50 in experiment [2] turned out to be 6770 nM.

For the compound `O=C(NCc1ccc(Cl)cc1)c1ccc2n(c1=O)CCN(CC1(N3CCCC3=O)CC1)C2=O` [Example 201, N-(4-chlorobenzyl)-1,6-dioxo-2-((1-(2-oxopyrrolidin-1-yl)cyclopropyl)methyl)-1,3,4,6-tetrahydro-2H-pyrido[1,2-a]pyrazine-7-carboxamide], the IC50 in experiment [1] was 4060 nM; in experiment [3] it was 182 nM. Moreover, in experiment [2], the 50% effective concentration (EC50) was found to be 4810 nM.

`O=C(NCc1ccc(Cl)cc1)c1ccc2n(c1=O)CCN(CC1(N3CCCCC3=O)CC1)C2=O` [Example 202]: the figures for the IC50 in experiment [1] and in experiment [3] were 6470 nM and 305 nM, respectively. Besides, the EC50 in experiment [2] stood at 7650 nM.

For the compound `O=C(NCc1ccc(Cl)cc1)c1ccc2n(c1=O)CCN(CC1(N3CCOCC3=O)CC1)C2=O` [Example 203], the half-inhibitory concentration (IC50) in experiment [1] was determined as 12200 nM; in experiment [3], 410 nM. In addition, the EC50 in experiment [2] came to 10000 nM.

Take `CNC1(CN2CCn3c(ccc(C(=O)NCc4ccc(Cl)cc4)c3=O)C2=O)CC1` [Example 204, N-(4-chlorobenzyl)-2-((1-(methylamino)cyclopropyl)methyl)-1,6-dioxo-1,3,4,6-tetrahydro-2H-pyrido[1,2-a] pyrazine-7-carboxamide]: the results for the IC50 in experiment [1] and in experiment [3] were 5470 nM and 156 nM, respectively. Also, in experiment [2], the EC50 worked out at 4040 nM.

Turning to `CC(=O)N(C)C1(CN2CCn3c(ccc(C(=O)NCc4ccc(Cl)cc4)c3=O)C2=O)CC1` [Example 205], the IC50 in experiment [1] was 8590 nM; in experiment [3] it was 249 nM. For the same compound, in experiment [2], the EC50 stood at 3760 nM.

`CN(C(=O)OC(C)(C)C)C1(CN2CCn3c(ccc(C(=O)NCc4ccc(Cl)cc4)c3=O)C2=O)CC1` [Example 206]: the values for the IC50 in experiment [1] and in experiment [3] were 250000 nM and 1740 nM, respectively. In experiment [2], the EC50 stood at 10000 nM.

For `O=C(NCc1ccc(Cl)cc1)c1ccc2n(c1=O)CCN(CC1(C(=O)N3CCCC3)CC1)C2=O` [Example 210], the IC50 in experiment [1] is 428 nM; in experiment [3], 25.7 nM. For the same compound, the EC50 in experiment [2] was found to be 494 nM.

`CNc1cc(CNC(=O)c2ccc3n(c2=O)CCN(CC2(S(=O)(=O)C4CC4)CC2)C3=O)ccc1C#N` [Example 212, N-(4-cyano-3-(methylamino)benzyl)-2-((1-(cyclopropylsulfonyl)cyclopropyl)methyl)-1,6-dioxo-1,3,4,6-tetrahydro-2H-pyrido[1,2-a]pyrazine-7-carboxamide]: the half-inhibitory concentration (IC50) stood at 51.4 nM in experiment [1] and 0.6 nM in experiment [3]. The EC50 in experiment [2] came out at 315 nM.
